In the METLIN SMRT retention time set (Domingo-Almenara et al. 2019):

experiment: gradient 5% acetonitrile 3 min, to 50% in 2 min, to 85% in 15 min, held 3 min, 100 µL/min; settings: column: Zorbax Extend-C18 2.1 x 50 mm; eluents: water / acetonitrile, 0.1% formic acid
Outline: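 Values are retention times taken from adduct peaks that software picked and an analyst inspected. The pure standards were run as mixtures of ~100 molecules on HPLC linked to a quadrupole time-of-flight mass spectrometer, in positive and negative ionization mode. A Zorbax Extend-C18 column (2.1 × 50 mm, 1.8 μm) was used at 100 μL/min with water and acetonitrile, each including 0.1% formic acid.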

Row | Compound | RP-LC retention time
1 | COc1ccc(C(=O)Nc2nc(CC(=O)Nc3ccc4c(c3)OCCO4)cs2)cc1 | 754 s
2 | CN1C(=O)c2cccn2CC1C(=O)Nc1ccc(F)cc1F (stereo unspecified) | 696 s
3 | CCn1cc(-c2nc(CC(=O)Nc3ccc(C#N)cc3)cs2)c2cccnc21 | 879 s
4 | Cc1nc(CNC(=O)[C@H]2CCCN2S(=O)(=O)c2ccc3c(c2)oc(=O)n3C)cs1 | 655 s
5 | CN1CC(CNS(=O)(=O)c2ccccc2C(F)(F)F)C2(CCCCC2)C1 (stereo unspecified) | 696 s
6 | O=C(CN1c2ccc(F)cc2-c2ccccc2S1(=O)=O)NCc1ccccc1 | 939 s
7 | Cc1ccc(-c2csc(Nc3ccc(F)cn3)n2)cc1C | 1180 s
8 | COc1ccc(NC(=O)N2CCN(C3=CC4=NC(C)CN4C=N3)CC2)cc1Cl (stereo unspecified) | 633 s
9 | CCC(C)NC(=O)c1nc(CCS(=O)(=O)c2ccccc2)no1 (stereo unspecified) | 771 s
10 | CCc1ccc(NS(=O)(=O)c2cc3c(s2)CCN(C(=O)C2CC2)C3)cc1 | 864 s
11 | Cn1c(=O)c(-c2ccc(C(=O)NCCCN3CCCC3)cc2)nc2ccccc21 | 616 s
12 | C#CCOCC1CCN(S(=O)(=O)c2ccccc2)CC1 | 866 s
13 | Cc1ccc(-n2c(=O)c3c(cc(C)n3C)n(CC(=O)Nc3ccc4c(c3)OCO4)c2=O)cc1 | 819 s
14 | Cn1cc(C(CNS(=O)(=O)c2cnc[nH]2)c2cccnc2)c2ccccc21 (stereo unspecified) | 590 s
15 | CCCNC(=O)Cc1c(C)nc2nc(-c3ccccc3)nn2c1C | 704 s
16 | Cc1nc(Nc2ccc(NC(=O)c3ccc(Br)o3)cc2)cc(-n2ccnc2)n1 | 587 s
17 | COC(=O)c1c(C)[nH]c(C(=O)N2CCC(CC(=O)N3CCN(c4cccc(C)c4)C(C)C3)CC2)c1C (stereo unspecified) | 754 s
18 | CCOc1ccccc1NC(=O)c1cnc2c(c1)c(=O)n(C)c(=O)n2-c1ccc(OC)cc1 | 961 s
19 | CCn1c(=O)n(CC)c2cc(N3CCCC3)c(NC(=O)NCc3ccc(F)cc3)cc21 | 648 s
20 | O=C(NCc1ccc(F)cc1F)C1CC(=O)N(c2ccc3c(c2)CCN3C(=O)C2CC2)C1 (stereo unspecified) | 750 s
21 | Cn1c(CN2CCN(C(=O)Nc3ccc4c(c3)OCO4)CC2)nc2cc(C(=O)N3CCCC3)ccc21 | 607 s
22 | O=C(NCc1ccc(Br)cc1)C1CCCN(c2ncc(-c3ccc(F)cc3)cn2)C1 (stereo unspecified) | 1120 s

Row | Compound | RP-LC retention time
23 | O=C(CCNS(=O)(=O)c1ccc(Cl)cc1)N1CCN(c2ccccn2)CC1 | 609 s
24 | CCc1cc(=O)n(CC(=O)N2CCc3ccccc32)c(-c2ccccc2)n1 | 1170 s
25 | CNc1cc(-c2ccccc2)[nH]n1 | 553 s
26 | CCCn1cnc2cc(CNC(=O)c3ccc(C(C)(C)C)cc3)ccc21 | 720 s
27 | Cc1ccc(CNC(=O)CC2CCN(C(=O)c3[nH]c(C)cc3C)CC2)cc1 | 797 s
28 | CN(C)c1nc2cc(C(=O)N3CCCC3)sc2n1-c1ccccc1 | 657 s
29 | COc1cccc(-n2c(=O)c3sccc3n(Cc3nc(-c4ccc(C(C)(C)C)cc4)no3)c2=O)c1 | 1220 s
30 | COc1ccc(-c2nc3sc(C(=O)N4CCOCC4)c(C)n3c2NC(C)(C)C)cc1 | 763 s
31 | Cc1cc2c(=O)n(CC(=O)Nc3cccc(Cl)c3)ccc2s1 | 832 s
32 | COc1cccc(S(=O)(=O)N2C[C@@H]3C[C@H]2C[C@@H]3NC(=O)c2cccs2)c1 | 854 s
33 | COc1ccc(-c2noc(-c3nn(-c4cccc(F)c4)ccc3=O)n2)cc1OC | 804 s
34 | Cc1ccc(S(=O)(=O)N2CCc3nc(-c4ccc(F)cc4)ncc3C2)cc1C | 1170 s
35 | COc1ccc(-c2ncc3c(n2)CCN(C(=O)Nc2cccc(C(C)=O)c2)C3)cc1 | 810 s
36 | O=C(CN1C(=O)c2ccccc2C1=O)Nc1nnc(-c2ccc3c(c2)OCCO3)o1 | 678 s
37 | Cn1nc(C(=O)N2CCCC(C(=O)Nc3ccccc3)C2)c2c1CCN(C(=O)CC1CCCC1)C2 (stereo unspecified) | 800 s
38 | Cc1ccc(Cl)cc1NC(=O)N1CCc2nc(-c3ccccc3)ncc2C1 | 783 s
39 | Cc1cccc(N2CCN(Cc3nc(-c4ccc(N5CCSCC5)nc4)no3)CC2)c1 | 1000 s
40 | Cc1ccc(-n2nnnc2CNC(=O)Nc2ccc3c(c2)OCO3)cc1C | 734 s
41 | CC(C)NC(=O)C1CC(=O)N(c2n[nH]c3cccc(F)c23)C1 (stereo unspecified) | 621 s
42 | CCOC(=O)CCNC(=O)N1CCC(CC2CC2)(NS(C)(=O)=O)CC1 | 672 s
43 | COc1ccc(-c2csc(Nc3ccccn3)n2)cc1OC | 761 s
44 | CCc1ccc(C2=C(C)C(N3CCCN(C(=O)c4ccsc4)CC3)=NS2(=O)=O)cc1 | 859 s

Row | Compound | RP-LC retention time
45 | COc1cc(=O)n(-c2ccccc2C)nc1C(=O)Nc1nc2ccc(C)cc2s1 | 861 s
46 | Cc1cccc(S(=O)(=O)N2CCC(c3nc(C(=O)N4CCCC4)c(C)o3)CC2)c1 | 902 s
47 | COc1ccc(NC(=O)C2CCCN(S(=O)(=O)c3c[nH]c(C(=O)N4CCCC4)c3)C2)cc1Cl (stereo unspecified) | 819 s
48 | COc1ccc(Cc2nnc3sc(-c4ccc(N(C)C)cc4)nn23)cc1 | 1090 s
49 | CCCc1cc(C(=O)N2CCCC2c2ccc(OC)cc2)no1 (stereo unspecified) | 1120 s
50 | CCc1c(C(=O)O)nnn1Cc1c(F)cccc1Cl | 742 s
51 | COCCN(Cc1ccco1)c1nc(-c2ccc(OC)cc2)nc2ccccc12 | 792 s
52 | O=C(NCC1CCCO1)C1CCN(c2ncccc2-c2nc(-c3cccc(Cl)c3)no2)CC1 (stereo unspecified) | 990 s
53 | COc1cccc(NS(=O)(=O)c2cc(-c3[nH]ncc3C(=O)N3CCCC3)oc2C)c1 | 693 s
54 | COc1ccc(CCNC(=O)N2CC3CC2C(=O)O3)cc1 (stereo unspecified) | 625 s
55 | COc1ccc(C)cc1NC(=O)N1CCN(c2ccc(=O)n(-c3ccc(C)cc3)n2)CC1 | 915 s
56 | CCn1ccc(C(=O)NCc2cccnc2Oc2ccccc2)n1 | 705 s
57 | COc1ccccc1C(CNC(=O)c1cc(=O)c2cc(Br)ccc2o1)N(C)C (stereo unspecified) | 651 s
58 | COc1ccc(NC(=O)Cn2nc3c(Oc4cccc(Cl)c4)nccn3c2=O)cc1 | 859 s
59 | Cc1ccc(CNC(=O)Cn2nc(N3CCCC(C)C3)c3ccccc3c2=O)cc1 (stereo unspecified) | 1110 s
60 | CC(=O)Nc1ccc(NC(=O)Cn2ccc3ccc(-c4nnc(C)o4)cc32)cc1 | 652 s
61 | Cc1nnc(-c2cn(CC(=O)Nc3ccc(Br)cc3F)c3ccccc23)o1 | 890 s
62 | Cc1cc(OCC(=O)NCc2ccc(Cl)cc2)nc(N2CCCC2)n1 | 645 s
63 | COc1ccccc1N1CCN(c2cc(SCC(=O)Nc3ccc(Cl)cc3F)ncn2)CC1 | 1260 s
64 | CC(=O)c1ccn(S(=O)(=O)c2ccc(C)cc2)c1 | 804 s
65 | O=S(=O)(c1ccccc1)N1CC(F)(F)C[C@H]1COc1cccnc1 | 690 s
66 | Cc1nc(CCNC(=O)Cc2cccs2)no1 | 646 s
